US11091806B2, “Genetic markers associated with response to CRTH2 receptor antagonists” (Merck Sharp & Dohme Corp., priority 2015, dated 2021)

What was measured:
[1] = test system: asthmatic subjects with persistent symptoms; assay: 17-week randomized, double-blind, placebo-controlled, crossover study of FEV1 in asthmatic subjects receiving montelukast, with pharmacogenetic subgroup analysis; type: in vivo, human; details: for Estimated mean treatment difference in FEV1 at Week 4 using the new method of analysis, LSMean: Compound A + montelukast vs placebo + montelukast, xdiff=0
Source text: FIG. 2 is graphical depiction of the study design. The study was a 17-week randomized, double-blind, placebo-controlled, crossover study with in-house blinding to evaluate the effect of {(7R)-4-fluoro-7-[5-(4-fluorobenzyl)-1H-[1,2,3]triazol-1-yl]-6,7,8,9-tetrahydropyrido[1,2-a]indol-10-yl}-acetic acid (hereinafter “Compound A”) on FEV1 when dosed for 4 weeks in asthmatic subjects with persistent symptoms while receiving montelukast (ML). Overall, 104 patients completed the study. Period I was a pre-study period. Subjects receiving long acting beta-agonists (LABAs) with inhaled corticosteroid (ICS), either separately or as part of a fixed-dose combination, were asked to discontinue the LABA component while still receiving ICS. Period II was a 2- to 4-week run-in period during which subjects receive open-label montelukast (ML) and single-blind placebo (PBO). Subjects receiving ICS or other controllers were required to taper off these medications while receiving montelukast; Period III was a 4-week, double-blind, randomized treatment period during which subjects received either Compound A 150 mg or matching-image placebo while continuing to receive montelukast 10 mg QD; Period IV was a 4-week wash out period during which subjects receive placebo in a single-blind fashion while continuing to receive montelukast 10 mg QD; Period V was a 4-week double-blind period during which subjects were crossed over to the opposite treatment not received during Period III.
The primary efficacy endpoint of the study was forced expiratory volume in 1 second (FEV1) after 4 weeks of dosing, and the study had 85% power to detect a true overall mean treatment difference of 110 mL.
A common analysis for crossover designs with longitudinal measurements in each period uses a linear mixed effects “cell means” model with the clinical measure (here, FEV1) as the dependent variable, and sequence (S=M→P, P→M), treatment (T=M,P), visit (V=0, 2, 4 weeks), and all possible interactions involving S, T, and V as independent variables; M=Compound A+montelukast, P=placebo+montelukast. In addition, to minimize assumptions, a covariance matrix without imposition of any structure (such as compound symmetry) is used to account for the intra-patient correlations among FEV1 responses over time and across the two treatments within each sequence.
This common analysis can be misleading if both of the following conditions are encountered in either crossover sequence: (i) the observed mean difference in baseline means for the two treatments is “far” from zero, and (ii) baseline and post-baseline responses are very strongly correlated (correlation 0.9 or higher). […] Consequently, we analyzed the FEV1 data using an extension of the method of analysis described in Mehrotra D V, Pharmaceutical Statistics 13, 376-387 (2014). This second analytical method is specifically designed for crossover analyses with baseline measurements. To do so, we added “xdiff” (baseline difference between treatments M and P) and interactions between xdiff and all the other fixed effect terms involving S, T, and V to the aforementioned common analysis crossover model; the mean treatment difference at week 4 was estimated at xdiff=0 via the SAS code below.
In the SAS code above, patients with a missing xdiff value are automatically removed from the analysis. To generate results in which all 103 patients are retained in the analysis, missing period 2 baseline FEV1 values (resulting in missing xdiff values, which was the case for ˜20% of the patients due to dropout) were imputed separately in each sequence via a simple linear regression model with the period 2 baseline as the dependent variable and the corresponding period 1 baseline as the independent variable. As noted earlier, the observed correlation between period 1 and period 2 FEV1 baselines was 0.9 in both sequences, providing reassurance that the imputed values for missing period 2 baselines had good reliability. […]

[2] = test system: patient population afflicted with eosinophilic severe asthma; details: patients with eosinophilic severe asthma; Phase IIa; cited from earlier work
allergic rhinitis = details: in vivo; cited from earlier work

## O=C(O)Cc1c2n(c3c(F)cccc13)C[C@H](n1nncc1Cc1ccc(F)cc1)CC2 [Compound A, {(7R)-4-fluoro-7-[5-(4-fluorobenzyl)-1H-[1,2,3]triazol-1-yl]-6,7,8,9-tetrahydropyrido[1,2-a]indol-10-yl}-acetic acid]
[1]; C = 0 (N = 74), no copies of the C allele
  FEV1: Estimated Mean Treatment Difference at Week 4 by Genotype Subgroup for rs12748961, LSMean: 59 mL
[1]; C ≥1 (N = 29), one or two copies of the C allele
  FEV1: Estimated Mean Treatment Difference at Week 4 by Genotype Subgroup for rs12748961, LSMean: 268 mL
[1]; missing period 2 FEV1 baselines imputed: No (N = 85)
  Estimated mean treatment difference in FEV1 at Week 4 using the new method of analysis, LSMean: 120 mL
[1]; missing period 2 FEV1 baselines imputed: Yes (N = 103)
  Estimated mean treatment difference in FEV1 at Week 4 using the new method of analysis, LSMean: 122 mL
[1]; after four weeks of treatment in patients who continue to take montelukast as background therapy
  Effectiveness in improving FEV1 levels relative to placebo: notably more effective
[1]; remaining 70% of the patients (C = 0)
  Estimated benefit (FEV1) in patients without the C allele of rs12748961: relatively small

## Cc1c(CC(=O)O)c2cccnc2n1Cc1ccc(S(C)(=O)=O)cc1C(F)(F)F [fevipiprant, 2-(2-methyl-1-(4-(methylsulfonyl)-2-(trifluoromethyl)benzyl)-1H-pyrrolo[2,3-b]pyridin-3-yl)acetic acid]
[2]
  Sputum eosinophils: reduction of sputum eosinophils

## O=C(O)CCn1c2c(c3ccccc31)C[C@H](NS(=O)(=O)c1ccc(F)cc1)CC2 [Ramatroban, 3-((3R)-3-{[(4-fluorophenyl)sulfonyl]amino}-1,2,3,4-tetrahydro-9H-carbazol-9-yl)propanoic acid]
Allergic rhinitis
  Efficacy in allergic rhinitis: some degree of efficacy
